This note sets out measurements from patent US8022206B2 (OSI Pharmaceuticals, LLC, priority 2008, dated 2011).

Molecules are shown by their SMILES. Some results are limits rather than exact numbers.

For orientation: IC50 means the midpoint of a concentration-inhibition curve.

Assay [1] has as its target MET (human) (Homo sapiens, UniProt P08581). In words: MET (human) AlphaScreen kinase assay, Km of ATP. In kind it is biochemical. The settings on record: AlphaScreen, Km of ATP; read-out: Met biochemical IC50. The essentials:
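Human MET at lot-optimised concentration in 50 mM Tris pH 7.4 buffer with 1 mM DTT, compound at 1% DMSO final; enzyme starts the reaction, 60 min at RT.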
(Bead proximity is the source of the signal in Alpha formats.)

In assay [2] the target is RON (human) (Homo sapiens, UniProt Q04912). The assay is described as follows: RON (human) AlphaScreen kinase assay, Km of ATP. In kind it is biochemical. The settings on record: AlphaScreen, Km of ATP; read-out: RON biochemical IC50. In outline: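 Reaction was started with enzyme and run 30 min at RT. PT66 donor/acceptor beads in an EDTA-containing Tris pH 7.5 buffer were then added, and the signal was read after 1 h.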
Chain of RON (human) (Q04912 25-1400): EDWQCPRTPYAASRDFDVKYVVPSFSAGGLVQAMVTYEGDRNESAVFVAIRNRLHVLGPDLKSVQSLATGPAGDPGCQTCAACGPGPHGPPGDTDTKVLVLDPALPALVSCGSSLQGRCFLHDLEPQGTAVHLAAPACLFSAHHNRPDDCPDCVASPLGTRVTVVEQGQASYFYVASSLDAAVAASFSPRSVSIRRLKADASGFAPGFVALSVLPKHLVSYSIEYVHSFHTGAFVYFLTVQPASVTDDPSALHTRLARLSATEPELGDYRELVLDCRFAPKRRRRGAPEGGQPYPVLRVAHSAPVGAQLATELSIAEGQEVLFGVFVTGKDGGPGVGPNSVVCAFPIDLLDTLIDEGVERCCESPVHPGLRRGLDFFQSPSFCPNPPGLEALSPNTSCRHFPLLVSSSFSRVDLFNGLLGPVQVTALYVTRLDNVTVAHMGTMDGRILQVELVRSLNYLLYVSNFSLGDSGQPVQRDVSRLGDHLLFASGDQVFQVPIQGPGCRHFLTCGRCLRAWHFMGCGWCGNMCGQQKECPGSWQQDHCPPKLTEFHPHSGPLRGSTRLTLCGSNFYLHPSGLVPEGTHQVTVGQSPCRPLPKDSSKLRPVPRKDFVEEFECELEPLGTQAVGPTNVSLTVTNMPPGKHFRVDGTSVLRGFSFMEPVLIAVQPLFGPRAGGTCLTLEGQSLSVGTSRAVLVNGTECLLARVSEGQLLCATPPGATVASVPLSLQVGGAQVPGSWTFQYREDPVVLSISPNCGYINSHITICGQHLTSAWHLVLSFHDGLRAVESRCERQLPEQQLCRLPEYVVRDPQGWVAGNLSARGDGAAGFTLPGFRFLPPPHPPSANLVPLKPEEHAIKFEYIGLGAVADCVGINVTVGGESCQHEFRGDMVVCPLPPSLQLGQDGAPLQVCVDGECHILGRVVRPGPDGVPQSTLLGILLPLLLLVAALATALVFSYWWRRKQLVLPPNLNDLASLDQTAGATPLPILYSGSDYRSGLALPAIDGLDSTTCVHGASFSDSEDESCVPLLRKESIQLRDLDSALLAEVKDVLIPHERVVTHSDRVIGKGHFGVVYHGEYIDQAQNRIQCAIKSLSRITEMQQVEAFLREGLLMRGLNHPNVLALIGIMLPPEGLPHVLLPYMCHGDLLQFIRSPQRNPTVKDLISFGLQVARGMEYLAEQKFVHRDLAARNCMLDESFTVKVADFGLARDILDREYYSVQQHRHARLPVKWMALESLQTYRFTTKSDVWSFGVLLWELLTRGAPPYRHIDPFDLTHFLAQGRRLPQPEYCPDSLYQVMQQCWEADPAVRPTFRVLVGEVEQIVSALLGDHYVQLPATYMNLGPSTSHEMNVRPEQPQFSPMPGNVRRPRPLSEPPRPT

Chain of MET (human) (P08581 25-1390): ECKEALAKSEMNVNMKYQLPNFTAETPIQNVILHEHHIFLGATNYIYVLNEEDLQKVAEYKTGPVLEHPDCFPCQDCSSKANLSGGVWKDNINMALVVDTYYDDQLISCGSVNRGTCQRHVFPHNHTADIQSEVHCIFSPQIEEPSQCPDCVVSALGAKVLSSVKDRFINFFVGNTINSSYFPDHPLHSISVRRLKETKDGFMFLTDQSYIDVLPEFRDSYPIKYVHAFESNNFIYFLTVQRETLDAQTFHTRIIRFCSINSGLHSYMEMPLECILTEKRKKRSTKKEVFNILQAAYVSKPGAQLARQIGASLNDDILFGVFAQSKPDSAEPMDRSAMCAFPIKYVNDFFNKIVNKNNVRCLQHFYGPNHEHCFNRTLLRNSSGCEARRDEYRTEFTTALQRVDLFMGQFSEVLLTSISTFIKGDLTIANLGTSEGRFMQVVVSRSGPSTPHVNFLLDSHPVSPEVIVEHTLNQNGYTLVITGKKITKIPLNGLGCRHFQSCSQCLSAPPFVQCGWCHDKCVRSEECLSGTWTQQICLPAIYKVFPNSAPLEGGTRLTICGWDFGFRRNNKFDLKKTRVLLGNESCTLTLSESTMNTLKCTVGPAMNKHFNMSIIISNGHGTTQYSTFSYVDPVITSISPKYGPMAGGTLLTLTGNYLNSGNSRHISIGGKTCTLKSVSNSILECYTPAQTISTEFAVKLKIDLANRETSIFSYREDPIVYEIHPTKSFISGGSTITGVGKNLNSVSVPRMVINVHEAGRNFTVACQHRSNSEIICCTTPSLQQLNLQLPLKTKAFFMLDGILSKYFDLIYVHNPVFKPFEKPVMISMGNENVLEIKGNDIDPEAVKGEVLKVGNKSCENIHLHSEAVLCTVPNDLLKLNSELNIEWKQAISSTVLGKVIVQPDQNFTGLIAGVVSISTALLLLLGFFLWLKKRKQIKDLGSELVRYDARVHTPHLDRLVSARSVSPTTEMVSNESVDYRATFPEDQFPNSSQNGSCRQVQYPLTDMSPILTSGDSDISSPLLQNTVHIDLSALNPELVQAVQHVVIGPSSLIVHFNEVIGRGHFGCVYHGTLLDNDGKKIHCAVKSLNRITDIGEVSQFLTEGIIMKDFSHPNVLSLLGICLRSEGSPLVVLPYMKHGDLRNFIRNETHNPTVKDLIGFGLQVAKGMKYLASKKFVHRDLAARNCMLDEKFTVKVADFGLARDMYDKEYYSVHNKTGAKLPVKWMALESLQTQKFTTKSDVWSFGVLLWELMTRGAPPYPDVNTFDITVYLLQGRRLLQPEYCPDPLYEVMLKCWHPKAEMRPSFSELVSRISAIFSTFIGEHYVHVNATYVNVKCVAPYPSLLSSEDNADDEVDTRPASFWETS

Turning to `C[C@H](O)C(=O)N1CC=C(c2coc3c(O[C@H](C)c4c(Cl)ccc(F)c4Cl)c(N)ncc23)CC1` [Example 227, (S)-1-(4-{6-Amino-7-[(R)-1-(2,6-dichloro-3-fluorophenyl)ethoxy]-furo[3,2-c]pyridin-3-yl}-3,6-dihydro-2H-pyridin-1-yl)-2-hydroxypropan-1-one], the IC50 in assay [1] is under 500 nM; in assay [2], 500 to 5000 nM.

For `C[C@@H](Oc1c(N)ncc2c(C3=CCN(C(=O)C(C)(C)O)CC3)coc12)c1c(Cl)ccc(F)c1Cl` [Example 228, 1-(4-{6-Amino-7-[(R)-1-(2,6-dichloro-3-fluorophenyl)ethoxy]-furo[3,2-c]pyridin-3-yl}-3,6-dihydro-2H-pyridin-1-yl)-2-hydroxy-2-methylpropan-β-one], the IC50 in assay [1] and in assay [2] was 500 to 5000 nM in each case.

Consider `CC(O)C(=O)N1CC=C(c2coc3c(O[C@H](C)c4c(Cl)ccc(F)c4Cl)c(N)ncc23)CC1` (stereo partly drawn) [Example 229, 1-(4-{6-Amino-7-[(R)-1-(2,6-dichloro-3-fluorophenyl)ethoxy]-furo[3,2-c]pyridin-3-yl}-3,6-dihydro-2H-pyridin-1-yl)-2-hydroxypropan-1-one], for which the IC50 in assay [1] and in assay [2] was under 500 nM throughout.

In the case of `C[C@@H](Oc1c(N)ncc2c(C3=CCN(C(=O)c4cnn[nH]4)CC3)coc12)c1c(Cl)ccc(F)c1Cl` [Example 230, (4-{6-Amino-7-[(R)-1-(2,6-dichloro-3-fluorophenyl)ethoxy]-furo[3,2-c]pyridin-3-yl}-3,6-dihydro-2H-pyridin-1-yl)-(3H-[1,2,3]triazol-4-yl)-methanone], the IC50 in assay [1] and in assay [2] was 500 to 5000 nM each time.

`C[C@@H](Oc1c(N)ncc2c(C3=CCN(C(=O)c4ccn[nH]4)CC3)coc12)c1c(Cl)ccc(F)c1Cl` [Example 231, (4-{6-Amino-7-[(R)-1-(2,6-dichloro-3-fluorophenyl)ethoxy]-furo[3,2-c]pyridin-3-yl}-3,6-dihydro-2H-pyridin-1-yl)-(2H-pyrazol-3-yl)-methanone]: the IC50 in assay [1] and in assay [2] was 500 to 5000 nM each time.

As for `C[C@@H](Oc1c(N)ncc2c(C3=CCN(C(=O)c4ncc[nH]4)CC3)coc12)c1c(Cl)ccc(F)c1Cl` [Example 232, (4-{6-Amino-7-[(R)-1-(2,6-dichloro-3-fluorophenyl)ethoxy]-furo[3,2-c]pyridin-3-yl}-3,6-dihydro-2H-pyridin-1-yl)-(1H-imidazol-2-yl)-methanone], the half-maximal inhibitory concentration (IC50) in assay [1] and in assay [2] was 500 to 5000 nM each time.

`C[C@@H](Oc1c(N)ncc2c(C3=CCN(C(=O)c4cnc[nH]4)CC3)coc12)c1c(Cl)ccc(F)c1Cl` [Example 233, (4-{6-Amino-7-[(R)-1-(2,6-dichloro-3-fluorophenyl)ethoxy]-furo[3,2-c]pyridin-3-yl}-3,6-dihydro-2H-pyridin-1-yl)-(3H-imidazol-4-yl)-methanone]: the IC50 in assay [1] and in assay [2] was 500 to 5000 nM throughout.

For `C[C@@H](Oc1c(N)ncc2c(C3=CCN(C(=O)c4ccc[nH]4)CC3)coc12)c1c(Cl)ccc(F)c1Cl` [Example 234, (4-{6-Amino-7-[(R)-1-(2,6-dichloro-3-fluorophenyl)ethoxy]-furo[3,2-c]pyridin-3-yl}-3,6-dihydro-2H-pyridin-1-yl)-(1H-pyrrol-2-yl)-methanone], the IC50 in assay [1] and in assay [2] was 500 to 5000 nM each time.

With `C[C@@H](Oc1c(N)ncc2c(C3=CCN(C(=O)[C@@H]4C[C@@H](F)CN4)CC3)coc12)c1c(Cl)ccc(F)c1Cl` [Example 235, (4-{6-Amino-7-[(R)-1-(2,6-dichloro-3-fluorophenyl)ethoxy]-furo[3,2-c]pyridin-3-yl}-3,6-dihydro-2H-pyridin-1-yl)-((2S,4R)-4-fluoropyrrolidin-2-yl)-methanone], the IC50 in assay [1] and in assay [2] was under 500 nM in each case.

As to `C[C@@H](Oc1c(N)ncc2c(C3=CCN(C(=O)C4CCCCN4C)CC3)coc12)c1c(Cl)ccc(F)c1Cl` (stereo partly drawn) [Example 236, (4-{6-Amino-7-[(R)-1-(2,6-dichloro-3-fluorophenyl)ethoxy]-furo[3,2-c]pyridin-3-yl}-3,6-dihydro-2H-pyridin-1-yl)-(1-methylpiperidin-2-yl)methanone], the IC50 in assay [1] and in assay [2] was under 500 nM throughout.

Turning to `C[C@@H](Oc1c(N)ncc2c(C3=CCN(C(=O)[C@H]4CCNC4)CC3)coc12)c1c(Cl)ccc(F)c1Cl` [Example 237, (4-{6-Amino-7-[(R)-1-(2,6-dichloro-3-fluorophenyl)ethoxy]-furo[3,2-c]pyridin-3-yl}-3,6-dihydro-2H-pyridin-1-yl)-(S)-pyrrolidin-3-ylmethanone], the IC50 in assay [1] and in assay [2] was under 500 nM each time.

With `C[C@@H](Oc1c(N)ncc2c(C3=CCN(C(=O)[C@@H]4CCCCN4)CC3)coc12)c1c(Cl)ccc(F)c1Cl` [Example 238, (4-{6-Amino-7-[(R)-1-(2,6-dichloro-3-fluorophenyl)ethoxy]-furo[3,2-c]pyridin-3-yl}-3,6-dihydro-2H-pyridin-1-yl)-(S)-piperidin-2-ylmethanone], the concentration for half-maximal inhibition (IC50) in assay [1] and in assay [2] was under 500 nM in each case.

In the case of `C[C@@H](Oc1c(N)ncc2c(C3=CCN(C(=O)[C@H]4CCCCN4)CC3)coc12)c1c(Cl)ccc(F)c1Cl` [Example 239, (4-{6-Amino-7-[(R)-1-(2,6-dichloro-3-fluorophenyl)ethoxy]-furo[3,2-c]pyridin-3-yl}-3,6-dihydro-2H-pyridin-1-yl)-(R)-piperidin-2-ylmethanone], the IC50 in assay [1] and in assay [2] was under 500 nM throughout.

Take `C[C@@H](Oc1c(N)ncc2c(C3=CCN(C(=O)[C@H]4CCCNC4)CC3)coc12)c1c(Cl)ccc(F)c1Cl` [Example 240, (4-{6-Amino-7-[(R)-1-(2,6-dichloro-3-fluorophenyl)ethoxy]-furo[3,2-c]pyridin-3-yl}-3,6-dihydro-2H-pyridin-1-yl)-(S)-piperidin-3-ylmethanone]: the IC50 in assay [1] and in assay [2] was under 500 nM throughout.

Turning to `C[C@@H](Oc1c(N)ncc2c(C3=CCN(C(=O)[C@@H]4CCCNC4)CC3)coc12)c1c(Cl)ccc(F)c1Cl` [Example 241, (4-{6-Amino-7-[(R)-1-(2,6-dichloro-3-fluorophenyl)ethoxy]-furo[3,2-c]pyridin-3-yl}-3,6-dihydro-2H-pyridin-1-yl)-(R)-piperidin-3-ylmethanone], the concentration for half-maximal inhibition (IC50) in assay [1] and in assay [2] was under 500 nM throughout.

For the compound `C[C@@H](Oc1c(N)ncc2c(C3=CCN(C(=O)[C@H]4CCCN4)CC3)coc12)c1c(Cl)ccc(F)c1Cl` [Example 242, (4-{6-Amino-7-[(R)-1-(2,6-dichloro-3-fluorophenyl)ethoxy]-furo[3,2-c]pyridin-3-yl}-3,6-dihydro-2H-pyridin-1-yl)-(R)-pyrrolidin-2-ylmethanone], the IC50 in assay [1] and in assay [2] was under 500 nM in each case.

Regarding `C[C@@H](Oc1c(N)ncc2c(-c3cccc(NS(=O)(=O)c4ccccc4)c3)coc12)c1c(Cl)ccc(F)c1Cl` [Example 243, N-(3-{6-Amino-7-[(R)-1-(2,6-dichloro-3-fluorophenyl)ethoxy]-furo[3,2-c]pyridin-3-yl}phenyl)benzenesulfonamide], the IC50 in assay [1] lay in the range of 500 to 5000 nM; in assay [2], 5000 to 20000 nM.

Consider `CCCS(=O)(=O)Nc1cccc(-c2coc3c(O[C@H](C)c4c(Cl)ccc(F)c4Cl)c(N)ncc23)c1` [Example 244, Propane-1-sulfonic acid (3-{6-amino-7-[(R)-1-(2,6-dichloro-3-fluorophenyl)ethoxy]-furo[3,2-c]pyridin-3-yl}phenyl)amide], for which the IC50 in assay [1] and in assay [2] was 500 to 5000 nM in each case.

In the case of `CCS(=O)(=O)Nc1cccc(-c2coc3c(O[C@H](C)c4c(Cl)ccc(F)c4Cl)c(N)ncc23)c1` [Example 245, Ethanesulfonic acid (3-{6-amino-7-[(R)-1-(2,6-dichloro-3-fluorophenyl)ethoxy]-furo[3,2-c]pyridin-3-yl}phenyl)amide], the IC50 in assay [1] and in assay [2] was 500 to 5000 nM throughout.

As to `CCCCS(=O)(=O)Nc1cccc(-c2coc3c(O[C@H](C)c4c(Cl)ccc(F)c4Cl)c(N)ncc23)c1` [Example 246, Butane-1-sulfonic acid (3-{6-amino-7-[(R)-1-(2,6-dichloro-3-fluorophenyl)ethoxy]-furo[3,2-c]pyridin-3-yl}phenyl)amide], the IC50 was 500 to 5000 nM in assay [1] and 5000 to 20000 nM in assay [2].

As for `C[C@@H](Oc1c(N)ncc2c(-c3cccc(NS(=O)(=O)c4cccs4)c3)coc12)c1c(Cl)ccc(F)c1Cl` [Example 247, Thiophene-2-sulfonic acid (3-{6-amino-7-[(R)-1-(2,6-dichloro-3-fluorophenyl)-ethoxy]-furo[3,2-c]pyridin-3-yl}phenyl)amide], the IC50 was in the range of 500 to 5000 nM in assay [1] and 5000 to 20000 nM in assay [2].

Regarding `C[C@@H](Oc1c(N)ncc2c(-c3cccc(NS(=O)(=O)CCC(F)(F)F)c3)coc12)c1c(Cl)ccc(F)c1Cl` [Example 248, 3,3,3-Trifluoropropane-1-sulfonic acid (3-{6-amino-7-[(R)-1-(2,6-dichloro-3-fluorophenyl)ethoxy]-furo[3,2-c]pyridin-3-yl}phenyl)amide], the half-inhibitory concentration (IC50) in assay [1] was in the range of 500 to 5000 nM; in assay [2] it was 5000 to 20000 nM.

As for `C[C@@H](Oc1c(N)ncc2c(-c3cccc(NS(=O)(=O)CCN(C)C)c3)coc12)c1c(Cl)ccc(F)c1Cl` [Example 249, 2-Dimethylaminoethanesulfonic Acid (3-{6-amino-7-[(R)-1-(2,6-dichloro-3-fluorophenyl)ethoxy]furo[3,2-c]pyridin-3-yl}phenyl)amide], the IC50 in assay [1] and in assay [2] was 500 to 5000 nM each time.

As to `CNCC(=O)N1CC=C(c2coc3c(O[C@H](C)c4c(Cl)ccc(F)c4Cl)c(N)ncc23)CC1` [Example 250, 1-[4-{6-Amino-7-[(1R)-1-(2,6-dichloro-3-fluorophenyl)ethoxy]furo[3,2-c]pyridin-3-yl}-3,6-dihydropyridin-1(2H)-yl]-2-(methylamino)ethanone], the IC50 in assay [1] and in assay [2] was under 500 nM in each case.
